Like-named read-outs stand apart in the source and are kept apart here.
Test system: P. falciparum 3D7 gametocytes
Experiment: alamarBlue gametocyte viability assay, strain 3D7
Format: cell-based, Plasmodium falciparum
Details: for Max Resp: DMSO set at 0%, 100 nM epoxomicin set at -100%; for Curve Class / IC50: stages III-V 3D7 gametocytes; for IC50: 11 concentrations, 1:3 dilution; call rule not given here

| Compound | Max Resp (Malaria Box) | Curve Class (Malaria Box) | IC50 (Malaria Box, read-out: IC50) | IC50 (Malaria Box) | IC50 (Plasmodium falciparum, 3D7, Malaria Box, read-out: IC50) |
| --- | --- | --- | --- | --- | --- |
| Cl.N=c1n(CCN2CCCCC2)c2ccccc2n1CC(O)c1cccc(Br)c1 (stereo not drawn) [MMV665902] | -99% | -1.1 | 3.72 µM |  |  |
| COCCn1c(C)nc2ccccc2c1=O [MMV665904] | -7% | 4 |  | Inactive |  |
| Cc1ccc(-c2cc(C(=O)Nc3ccc(S(=O)(=O)N4CCCCC4)cc3)[nH]n2)c(O)c1 [MMV665906] | -61% | -1.2 | 5.26 µM |  |  |
| COc1ccc(N2CCN(C(CNC(=O)CC(C)(C)C)c3ccc4c(c3)OCO4)CC2)cc1 (stereo not drawn) [MMV665908] | -26% | 4 |  | Inactive |  |
| O=C(Nc1nc(-c2ccccn2)cs1)c1ccccc1Br [MMV665909] | -65% | -2.2 | 18.7 µM |  |  |
| CCOc1ccc(-c2nc(NC(=O)c3cccc(S(C)(=O)=O)c3)sc2C)cc1 [MMV665913] | -15% | 4 |  | Inactive |  |
| COc1ccccc1N1CCN(C(CNS(=O)(=O)c2ccc(Cl)cc2)c2cccnc2)CC1 (stereo not drawn) [MMV665914] | -63% | -2.2 | 29.6 µM |  |  |
| COc1ccc(-c2nc(NC(=O)CS(=O)(=O)c3ccc(F)cc3)sc2C)cc1 [MMV665915] | -44% | -2.2 |  | Inactive |  |
| COc1ccccc1CNC(=O)CCn1c(=O)[nH]c2ccccc2c1=O [MMV665916] | -1% | 4 |  | Inactive |  |
| O=C(Nc1ccc(Cl)cc1)N1CCN(c2ccc3nncn3n2)CC1 [MMV665917] | -1% | 4 |  | Inactive |  |
| O=C(CSc1ccc2nnc(-c3cccc(F)c3)n2n1)Nc1ccc2c(c1)OCO2 [MMV665918] | -14% | 4 |  | Inactive |  |
| N=c1c2ccccc2nnn1-c1cccc(C(F)(F)F)c1 [MMV665923] | 14% | 4 |  | Inactive |  |
| COc1ccc(C(=O)C2CC2c2ccc(Cl)cc2)cc1 (stereo not drawn) [MMV665924] | -23% | 4 |  | Inactive |  |
| O=C(CCl)NCCOc1ccc(Cl)cc1Cl [MMV665927] | -88% | -2.1 | 16.6 µM |  |  |
| CCC(C)NCC(O)(c1ccc(Cl)cc1)c1ccc(Cl)cc1 (stereo not drawn) [MMV665928] | -78% | -2.2 | 5.9 µM |  |  |
| CCCCNCC(O)(c1ccc(Cl)cc1)c1ccc(Cl)cc1 [MMV665929] | -73% | -1.2 | 2.96 µM |  |  |
| O=C1c2ccccc2-c2nnc(-c3ccc(Br)cc3)cc21 [MMV665934] | 17% | 4 |  | Inactive |  |
| FC(F)(F)c1ccc(Nc2nnnc3ccccc23)cc1 [MMV665935] | 25% | 4 |  | Inactive |  |
| Cc1ccc(S(=O)(=O)c2c(COC(=O)c3cccc(C)c3)c(-c3ccccc3)nn2C)cc1 [MMV665936] | 5% | 4 |  | Inactive |  |
| CCOc1ccc(/C=C/c2nc(=O)c3ccccc3o2)cc1 [MMV665940] | 46% | 2.2 | 18.7 µM |  |  |

| Compound | Max Resp (Malaria Box) | Curve Class (Malaria Box) | IC50 (Malaria Box, read-out: IC50) | IC50 (Malaria Box) | IC50 (Plasmodium falciparum, 3D7, Malaria Box, read-out: IC50) |
| --- | --- | --- | --- | --- | --- |
| CN(C)c1ccc(C(O)(c2ccc(N(C)C)cc2)c2ccc(N(C)C)cc2)cc1 [MMV665941] | -118% | -1.1 |  |  | 5.9 µM |
| Nc1ccc(-c2nc3cc(Cc4ccc5[nH]c(-c6ccc(N)cc6)nc5c4)ccc3[nH]2)cc1 [MMV665943] | -69% | -2.2 | 29.6 µM |  |  |
| COc1ccc(CN2CCN(Cc3ccccc3)CC2)c(O)c1 [MMV665944] | -96% | -2.1 | 6.62 µM |  |  |
| CC(C)=CCN1CCC(C(=O)Nc2ccc(-c3nc4ccccc4[nH]3)cc2)CC1 [MMV665946] | -77% | -2.2 | 14.8 µM |  |  |
| O=C(Nc1ccccc1O)c1ccc(-c2ccc(Cl)cc2Cl)o1 [MMV665948] | -52% | -1.4 | 5.9 µM |  |  |
| Oc1ccc(C(=C(Cl)Cl)c2ccc(O)cc2)cc1 [MMV665949] | -40% | -1.2 | 9.35 µM |  |  |
| O=C(Nc1ccc(F)c(Cl)c1)Nc1ccc(Cl)c(Cl)c1 [MMV665953] | -94% | -2.1 | 18.7 µM |  |  |
| O=C(NCC1Cc2cccc(-c3ccncc3)c2O1)c1csc2c1CCCC2 (stereo not drawn) [MMV665954] | 5% | 4 |  | Inactive |  |
| CCN(CC)CCCNc1nc(-c2ccc(Cl)cc2)nc2ccccc12 [MMV665961] | -95% | -2.1 | 16.6 µM |  |  |
| COc1cccc(C(=O)NC(c2ccc(C)cc2)c2cc(Cl)c3cccnc3c2O)c1 (stereo not drawn) [MMV665969] | -76% | -2.2 | 11.8 µM |  |  |
| CCOC(=O)C1=C(C)N=c2sc(=Cc3cc(Cl)ccc3O)c(=O)n2C1c1ccc(OC)cc1 (stereo not drawn) [MMV665971] | -40% | -1.2 | 2.96 µM |  |  |
| O=C(Cc1ccccc1)NC(c1ccc(Cl)cc1)c1c(O)ccc2ccccc12 (stereo not drawn) [MMV665972] | -62% | -2.2 | 29.6 µM |  |  |
| CCOC(=O)c1cn(CC)c2cc(N(C)CCc3ccc(OC)c(OC)c3)c(F)cc2c1=O [MMV665977] | 2% | 4 |  | Inactive |  |
| FC(F)(F)c1cccc(CNC2CCN(CCc3ccccc3)CC2)c1 [MMV665979] | -89% | -2.1 | 14.8 µM |  |  |
| OC1CCCCC1C1(NC(=S)Nc2ccccc2)CCCCC1 (stereo not drawn) [MMV665980] | -81% | -2.1 | 11.8 µM |  |  |
| CCCCCCc1cc(O)c2c3c(c(=O)oc2c1)CCC(C)C3 (stereo not drawn) [MMV665987] | 0% | 4 |  | Inactive |  |
| Cc1nc2ccccc2c(O)c1CC=C(Cl)Cl [MMV665994] | 5% | 4 |  | Inactive |  |
| CN1c2ccccc2N(C)C1c1ccc2c(c1)OCO2 [MMV666009] | -36% | -2.4 |  | Inactive |  |
| Cc1ccc(OCCCCCCNCCO)c(C)c1 [MMV666020] | -64% | -2.2 | 37.2 µM |  |  |
| Cc1ccc(-c2cc3c(nn2)-c2ccccc2C3=O)cc1 [MMV666021] | -4% | 4 |  | Inactive |  |

| Compound | Max Resp (Malaria Box) | Curve Class (Malaria Box) | IC50 (Malaria Box, read-out: IC50) | IC50 (Malaria Box) | IC50 (Plasmodium falciparum, 3D7, Malaria Box, read-out: IC50) |
| --- | --- | --- | --- | --- | --- |
| COc1ccc(C(=O)NC(c2ccccc2Cl)c2cc(Cl)c3cccnc3c2O)cc1 (stereo not drawn) [MMV666022] | -83% | -2.1 | 14.8 µM |  |  |
| c1ccc(Cn2c(N=Nc3c(Nc4ccccc4)ccc4ccccc34)nc3ccccc32)cc1 [MMV666023] | -89% | -2.1 | 10.5 µM |  |  |
| OC(Cn1nnc2ccccc21)Cn1c2ccc(Br)cc2c2cc(Br)ccc21 (stereo not drawn) [MMV666025] | -60% | -2.2 | 37.2 µM |  |  |
| COc1ccc(-c2cc3c(nn2)-c2ccccc2C3=O)cc1 [MMV666026] | 0% | 4 |  | Inactive |  |
| COc1ccc(C(=O)NC(c2ccc(Cl)cc2Cl)c2cc(Cl)c3cccnc3c2O)cc1 (stereo not drawn) [MMV666054] | -125% | -2.1 | 16.6 µM |  |  |
| O=C(Nc1ccc(Cl)cc1C(=O)Nc1ccncc1)c1ccc(Cl)cc1Cl [MMV666057] | -57% | -2.2 | 29.6 µM |  |  |
| COc1ccc(CN2CCCC(C(=O)c3ccc(C(F)(F)F)cc3)C2)c(O)c1 (stereo not drawn) [MMV666060] | -45% | -1.2 | 1.05 µM |  |  |
| COc1cccc(O)c1CN1CCC2(CCCN(Cc3ccc(F)cc3)C2)C1 (stereo not drawn) [MMV666061] | -57% | -1.2 | 1.66 µM |  |  |
| Cc1ccc(N2C(=O)C3C(C2=O)C2(c4ccccc4)C(=O)C3(c3ccccc3)C(c3ccccc3)=C2c2ccccc2)cc1 (stereo not drawn) [MMV666062] | 12% | 4 |  | Inactive |  |
| COc1ccc(CNC2CCN(c3ccc(NC(=O)c4cccc(Cl)c4)cc3)CC2)cc1OC [MMV666067] | -95% | -2.1 | 14.8 µM |  |  |
| COc1ccc(CCN2CCC(CN(C)Cc3cnn(-c4ccccc4)c3)CC2)cc1 [MMV666069] | -86% | -2.1 | 10.5 µM |  |  |
| O=C(NC1CCCC1)c1ccc(N2CCC(NCc3cccc(C(F)(F)F)c3)CC2)cc1 [MMV666070] | -47% | -2.2 |  | Inactive |  |
| Cc1ccc(CN2CCC(C(=O)Nc3ccc(-c4cc5ccccc5[nH]4)cc3)CC2)o1 [MMV666071] | -71% | -2.2 | 29.6 µM |  |  |
| COCCNC(=O)c1ccc(OC2CCN(Cc3ccc(F)c(F)c3)CC2)c(Cl)c1 [MMV666072] | 12% | 4 |  | Inactive |  |
| COc1ccc(C2N(C)c3ccccc3N2C)cc1 [MMV666075] | -34% | -2.4 |  | Inactive |  |
| Cc1ccc2cc3c(N)c4c(C)ccc(C)c4nc3nc2c1 [MMV666079] | -81% | -2.1 | 16.6 µM |  |  |
| O=C(NC(c1ccccc1)c1ccc2cccnc2c1O)c1ccccc1 (stereo not drawn) [MMV666080] | -75% | -2.2 | 9.35 µM |  |  |
| CCCc1c(C)nc2ccccc2c1O [MMV666081] | 23% | 4 |  | Inactive |  |
